Results published in ChEMBL document CHEMBL4706519, “Evaluation of N-phenyl-2-aminothiazoles for treatment of multi-drug resistant and intracellular Staphylococcus aureus infections” (Eur J Med Chem, 2020).
Converted amounts (≈) assume the structure as drawn.

Experiments:
Enterococcus faecium [1] = experiment: Ratio of MBC to MIC for vancomycin-resistant Enterococcus faecium ATCC 700221 assessed as inhibition of bacterial growth measured after 18 to 20 hrs by CLSI protocol based broth microdilution method; type: functional; details: time 18-20 hrs
Staphylococcus aureus [2] = experiment: microbe, parasite or virus in culture; details: USA400 NRS123
[3] = Selectivity index, ratio of maximum non-toxic concentration for human Caco-2 cells to MIC for methicillin-resistant Staphylococcus aureus USA400 NRS123; type: toxicity
Staphylococcus aureus [4] = experiment: microbe, parasite or virus in culture; details: USA700 NRS386
Staphylococcus aureus [5] = experiment: microbe, parasite or virus in culture; details: ATCC 6538
[6] = test system: Staphylococcus epidermidis; experiment: Antibacterial activity against methicillin-resistant Staphylococcus epidermidis NRS101 assessed as inhibition of bacterial growth measured after 18 to 20 hrs by CLSI protocol based broth microdilution method; type: functional; details: time 18-20 hrs
Staphylococcus aureus [7] = experiment: Antibacterial activity against methicillin-resistant Staphylococcus aureus USA400 NRS123 infected in mouse J774 cells assessed as reduction in intracellular bacterial burden at 4 x MIC measured after 24 hrs relative to control; type: functional
Staphylococcus aureus [8] = experiment: Antibacterial activity against methicillin-resistant Staphylococcus aureus USA400 NRS123 infected in mouse J774 cells assessed as log reduction in intracellular bacterial burden at 2 x MIC measured after 24 hrs; type: functional
Enterococcus faecium [9] = experiment: Antibacterial activity against vancomycin-resistant Enterococcus faecium ATCC 700221 assessed as inhibition of bacterial growth measured after 18 to 20 hrs by CLSI protocol based broth microdilution method; type: functional; details: time 18-20 hrs
[10] = Half life in human liver microsomes at 0.1 uM in presence of NADPH by LC/MS/MS analysis

`C/C(=N\NC(=N)N)c1ccc(Nc2nc(-c3ccc(C)cc3)cs2)cc1` showed a Ratio (Enterococcus faecium [1]) of 1, an MBC (Staphylococcus aureus [2]) of 2 µg/mL (≈ 5.49 µM) and an MIC (Staphylococcus aureus [2]) of 2 µg/mL (≈ 5.49 µM). For the same compound, the selectivity ratio [3] was 16, the MBC (Staphylococcus aureus [4]) was 2 µg/mL (≈ 5.49 µM) and the MIC (Staphylococcus aureus [4]) was 2 µg/mL (≈ 5.49 µM). For the same compound, the MBC (Staphylococcus aureus [5]) was 4 µg/mL (≈ 11 µM), the MIC (Staphylococcus aureus [5]) was 2 µg/mL (≈ 5.49 µM) and the MBC [6] was 1 µg/mL (≈ 2.74 µM). The MIC [6] was 1 µg/mL (≈ 2.74 µM), the “inhibition (INH)” value (Staphylococcus aureus [7]) was 99% and the Activity (Staphylococcus aureus [8]) was 1.19 log10CFU/ml. It also gave an MBC (Enterococcus faecium [9]) of 4 µg/mL (≈ 11 µM), an MIC (Enterococcus faecium [9]) of 2 µg/mL (≈ 5.49 µM) and a half-life at 0.1 µM [10] of 1.96 h.
